# Laboratory results: EP3789378A1, “PIPERIDINES OR PIPERIDONES SUBSTITUTED WITH UREA AND HETEROARYL” (Grünenthal GmbH, priority 2019, dated 2021)
# Target: T1, h FPR2 (Homo sapiens, UniProt P25090)
# T1 construct: expressed in transfected cells
# T1 sequence (P25090 1-351): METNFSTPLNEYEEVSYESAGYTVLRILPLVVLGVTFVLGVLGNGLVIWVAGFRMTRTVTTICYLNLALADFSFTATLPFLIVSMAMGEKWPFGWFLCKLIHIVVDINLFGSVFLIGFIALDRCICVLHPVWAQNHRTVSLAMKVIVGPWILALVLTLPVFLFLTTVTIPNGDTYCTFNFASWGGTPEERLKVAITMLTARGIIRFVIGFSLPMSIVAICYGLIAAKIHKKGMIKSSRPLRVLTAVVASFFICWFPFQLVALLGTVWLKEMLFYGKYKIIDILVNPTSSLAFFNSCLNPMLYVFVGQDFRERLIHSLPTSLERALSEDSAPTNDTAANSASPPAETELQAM
# Assay: Agonistic activity in hFPR2-Aq-CHO cells (FLIPR Calcium 5 fluorescence assay)
# Format: cell-based
# Conditions: 11 point half log dilution, final assay concentration from 10µM
# Experimental: After washing, the cells are plated at 10,000 cells per well in 40 µL complete medium in a 384-well sterile clear bottom black plate and incubated in a 5% CO2 incubator at 37°C for 18 hours. Plating media is removed from each well by decanting and gentle tapping before 30 µL of 0.5X Calcium 5 dye solution (0.5X FLIPR Calcium 5 dye (Molecular devices, R8186)); HBSS; 20mM HEPES; 2.5mM Probenecid; 0.025% Pluronic F-127; pH adjusted to 7.4) is added to each well and the plate is then incubated at 37°C for 30 minutes. For the assay the plate is equilibrated at room temperature for 10 minutes before placing it in the FLIPR. Compounds are dissolved in DMSO and serially diluted over an 11 point half log (3.16 fold) dilution (2 mM to 20 nM). Compounds are then diluted 1:50 in assay buffer (HBSS; 20mM HEPES; 2.5mM Probenecid; 0.05% gelatin; 0.1% BSA; pH adjusted to 7.4) just before performing the assay. Compounds are finally added to the respective wells of the cell plate (final assay concentration 10 µM to 100 pM) using the FLIPR (e.g. FLIPR-Tetra, Molecular Devices) and fluorescence readings are captured for 5 minutes. The increase in fluorescence from the basal reading in the presence of the compounds is compared with that of the control wells (wells having no compound) to calculate the activity of the compounds. The EC50 values of the compounds can be determined using e.g. Graph pad Prism software.
# Assay method for measuring agonistic activity of compounds in hFPR2-Aq-CHO cell
# Cryo-vial containing 6x10^6 cells (hFPR1-Gα15-CHO or hFPR2-Aq-CHO) was thawed in a 37°C water bath. Cells were suspended in 10ml of respective complete growth media (F12(1X)HAM media (Gibco; Cat#11765); 10% HI-FBS (Gibco; Cat#10082); 0.4 mg/ml Geneticin (Gibco; Cat#10131); 0.25 mg/ml Zeocin (Invitrogen; Cat#R25001)) in a 15ml centrifuge tube. The cell viability was checked with the help of Trypan Blue dye. Upon washing the cells, those were plated in a 384-well sterile clear bottom black plate (Greiner Bioone Cat# 781091) so that, each well contained 10,000 cells in 40µl complete growth media. The plate was incubated in a 5% CO2 incubator at 37°C for 18 hours. Before assay on the next day, the cell plating media was removed from each well of the plate by decanting and gentle tapping. 30µl of 0.5X Calcium 5 dye solution (0.5X FLIPR Calcium 5 dye (Molecular devices Cat# R8186); HBSS (Invitrogen; Cat#14025); 20mM HEPES (Sigma; Cat#H0887); 2.5mM Probenecid (Sigma; Cat#P8761); 0.025% Pluronic F-127 (Sigma; Cat#P2443); pH adjusted to 7.4) was added to each well. The plate was then incubated at 37°C for 30 minutes. Following which the plate was equilibrated at room temperature for 10 minutes before placing it in a 384 well FLIPR for assay. Compounds were dissolved in DMSO and serially diluted following 11 point half log (3.16 fold) dilution with a starting concentration of 2mM (Final assay concentration 10µM). Aliquots of above mentioned each dilution was mixed with assay buffer (HBSS (Invitrogen; Cat#14025); 20mM HEPES (Sigma; Cat#H0887); 2.5mM Probenecid (Sigma; Cat#P8761); 0.05% gelatin (Sigma; Cat#G1890); 0.1% BSA (Sigma; Cat#A3059); pH adjusted to 7.4) just before performing the assay. Compounds were added to the respective wells of the assay ready cell plate with the help of the FLIPR (FLIPR Tetra) and fluorescence readings were captured for 5 minutes to measure any agonistic response of the compounds. The increase in fluorescence readings from the basal reading in presence of the compounds were compared with that of the control wells (wells having no compound) to calculate the agonistic activity of the compounds. The EC50 values of the compounds were determined using the Graph pad Prism software.
row,EC50 [nM],Structure (SMILES)
1,4,"CNCCC(=O)N1CC[C@@H](NC(=O)Nc2ccc(Cl)cc2)[C@H](c2ccc(OC)cn2)C1 (relative stereo) [Ex-97, trans-1-(4-chloro-phenyl)-3-[5-methoxy-1'-(3-methylamino-propionyl)-1',2',3',4',5',6'-hexahydro-[2,3']bipyridinyl-4'-yl]-urea]"
2,3,"CNCCN1CC[C@@H](NC(=O)Nc2ccc(Cl)cc2)[C@H](c2ccc(OC)cn2)C1 (relative stereo) [Ex-117, trans-1-(4-Chlorophenyl)-3-[3-(5-methoxy-pyridin-2-yl)-1-(2-methylamino-ethyl)-piperidin-4-yl]-urea]"
3,2,"O=C(Nc1ccc(Cl)cc1)N[C@@H]1CCN(c2ccncn2)C[C@H]1c1ccc(Cl)cn1 (relative stereo) [Ex-9, trans-1-(4-chloro-phenyl)-3-(5-chloro-1'-pyrimidin-4-yl-1',2',3',4',5',6'-hexahydro-[2,3']bipyridinyl-4'-yl)-urea]"
4,1,"COc1ccc([C@@H]2CN(c3ccc(F)cc3)CC[C@H]2NC(=O)Nc2cc(C)ns2)nc1 (relative stereo) [Ex-20, trans-1-[1'-(4-fluoro-phenyl)-5-methoxy-1',2',3',4',5',6'-hexahydro-[2,3']bipyridinyl-4'-yl]-3-(3-methyl-isothiazol-5-yl)-urea]"
5,0.3,"COc1cnc([C@@H]2CN(CC3CC3)CC[C@H]2NC(=O)Nc2ccc(Cl)cc2)c(F)c1 (relative stereo) [Ex-209, trans-1-(4-chloro-phenyl)-3-(1'-cyclopropylmethyl-3-fluoro-5-methoxy-1',2',3',4',5',6'-hexahydro-[2,3']bipyridinyl-4'-yl)-urea]"
6,4,"COc1cnc([C@@H]2CN(C3COC3)CC[C@H]2NC(=O)Nc2ccc(Cl)cc2)c(F)c1 (relative stereo) [Ex-218, trans-1-(4-chloro-phenyl)-3-(3-fluoro-5-methoxy-1'-oxetan-3-yl-1',2',3',4',5',6'-hexahydro-[2,3']bipyridinyl-4'-yl)-urea]"
7,57,"COc1ccc([C@@H]2CN(CCCO)CC[C@H]2NC(=O)Nc2ccccc2)nc1 (relative stereo) [Ex-159, trans-1-[1-(3-Hydroxy-propyl)-3-(5-methoxy-pyridin-2-yl)-piperidin-4-yl]-3-phenyl-urea]"
8,54,"COc1ccc([C@@H]2CN(Cc3cc(C(F)(F)F)on3)CC[C@H]2NC(=O)Nc2ccc(Cl)cc2)nc1 (single isomer, unassigned) [Ex-38, trans-1-(4-chlorophenyl)-3-[3-(5-methoxypyridin-2-yl)-1-{[5-(trifluoromethyl)-1,2-oxazol-3-yl]methyl}piperidin-4-yl]urea]"
9,13,"COc1ccc([C@@H]2CN(C(=O)C3CCC(OC)CC3)CC[C@H]2NC(=O)Nc2ccc(Cl)cc2)nc1 (relative stereo) [Ex-81, trans-1-(4-chloro-phenyl)-3-[5-methoxy-1'-(4-methoxy-cyclohexanecarbonyl)-1',2',3',4',5',6'-hexahydro-[2,3']bipyridinyl-4'-yl]-urea]"
10,40,"COc1ccc([C@@H]2CN(C(=O)c3ccc(C)nc3)CC[C@H]2NC(=O)Nc2ccc(Cl)cc2)nc1 (single isomer, unassigned) [Ex-55, trans-1-(4-chlorophenyl)-3-[3-(5-methoxypyridin-2-yl)-1-[(6-methylpyridin-3-yl)carbonyl]piperidin-4-yl]urea]"

# Same assay, conditions: agonistic response at 0.1µM
row,activation at 0.1 µM [%],Structure (SMILES)
1,44,"COc1ccc([C@@H]2CN(CC3CC3)CC[C@H]2NC(=O)Nc2ccc(Cl)cc2)nc1 (relative stereo) [Ex-173, trans-1-(4-Chlorophenyl)-3-[1-(cyclopropyl-methyl)-3-(5-methoxy-pyridin-2-yl)-piperidin-4-yl]-urea]"
2,26,"COc1ccc([C@@H]2CN(Cc3ccn(S(C)(=O)=O)n3)CC[C@H]2NC(=O)Nc2ccccc2)nc1 (relative stereo) [Ex-59, trans-3-[1-[(1-methanesulfonyl-1H-pyrazol-3-yl)methyl]-3-(5-methoxypyridin-2-yl)piperidin-4-yl]-1-phenylurea]"
